The subject of the assay is HCV 1b genotype. In words: HCV Replicon assay (HCV 1b genotype). As to conditions: Hepatitis C virus, HCV 1b genotype replicon. It counts as cell-based. The essentials:
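Cell-based HCV genotype 1b replicon assay in HCV-neo replicon cells, including replicons carrying NS5A resistance substitutions; luciferase reporter read-outs also used.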

Setting [1] is: read-out: Range (EC50 values against HCV 1b).

This passage reports EC50 results from patent publication US9006455B2 (Bristol-Myers Squibb Company, priority 2009, dated 2015).

Like-named read-outs stand apart in the source and are kept apart here.

Broadly, the EC50 is the concentration needed to bring the measured effect to its halfway point. Consider `COC(=O)N[C@H](C(=O)N1CCC[C@@H]1c1nc2nc(-c3ccc4cc(-c5cnc6[nH]c([C@@H]7CCCN7C(=O)[C@@H](NC(=O)OC)C(C)C)nc6n5)ccc4c3)cnc2[nH]1)C(C)C` [Example 25A, Methyl((1S)-1-(((2S)-2-(5-(6-(2-((2R)-1-((2S)-2-((methoxycarbonyl)amino)-3-methylbutanoyl)-2-pyrrolidinyl)-1H-imidazo[4,5-b]pyrazin-5-yl)-2-naphthyl)-1H-imidazo[4,5-b]pyrazin-2-yl)-1-pyrrolidinyl)carbonyl)-2-methylpropyl)carbamate], for which the EC50 under setting [1] is 1.01 to 1000 nM. As to `COC(=O)N[C@H](C(=O)N1CCC[C@@H]1c1nc2nc(-c3ccc4cc(-c5cnc6[nH]c([C@H]7CCCN7C(=O)[C@@H](NC(=O)OC)C(C)C)nc6n5)ccc4c3)cnc2[nH]1)C(C)C` [Example 25B, Methyl((1S)-1-(((2R)-2-(5-(6-(2-((2R)-1-((2S)-2-((methoxycarbonyl)amino)-3-methylbutanoyl)-2-pyrrolidinyl)-1H-imidazo[4,5-b]pyrazin-5-yl)-2-naphthyl)-1H-imidazo[4,5-b]pyrazin-2-yl)-1-pyrrolidinyl)carbonyl)-2-methylpropyl)carbamate], the 50% effective concentration (EC50) under setting [1] lay in the range of 1.01 to 1000 nM. Consider `COC(=O)N[C@H](C(=O)N1CCC[C@H]1c1nc2cc(-c3ccc4ccc(-c5ccc6nc([C@@H]7CCCN7C(=O)[C@@H](NC(=O)OC)C(C)C)[nH]c6c5)cc4c3)ccc2[nH]1)C(C)C` [Example 1, Methyl((1S)-1-(((2S)-2-(5-(7-(2-((2S)-1-((2S)-2-((methoxycarbonyl)amino)-3-methylbutanoyl)-2-pyrrolidinyl)-1H-benzimidazol-5-yl)-2-naphthyl)-1H-benzimidazol-2-yl)-1-pyrrolidinyl)carbonyl)-2-methylpropyl)carbamate], for which the EC50 under setting [1] was in the range of 1.01 to 1000 nM. On to `COC(=O)N[C@@H](C(=O)N1CCC[C@H]1c1nc2cc(-c3ccc4ccc(-c5ccc6nc([C@@H]7CCCN7C(=O)[C@H](NC(=O)OC)c7ccccc7)[nH]c6c5)cc4c3)ccc2[nH]1)c1ccccc1` [Example 12, Dimethyl(2,7-naphthalenediylbis(1H-benzimidazole-5,2-diyl(2S)-2,1-pyrrolidinediyl((1R)-2-oxo-1-phenyl-2,1-ethanediyl)))biscarbamate], for which the EC50 under setting [1] lay within 1.01 to 1000 nM.

`COC(=O)N[C@H](C(=O)N1[C@@H]2C[C@@H]2C[C@H]1c1nc2ccc(-c3ccc4nc(-c5ccc6nc([C@@H]7C[C@H]8C[C@H]8N7C(=O)[C@@H](NC(=O)OC)C7CCOCC7)[nH]c6c5)ccc4c3)cc2[nH]1)C1CCOCC1` [Example 39, Dimethyl(2,6-quinolinediylbis(1H-benzimidazole-5,2-diyl(1R,3S,5R)-2-azabicyclo[3.1.0]hexane-3,2-diyl((1S)-2-oxo-1-(tetrahydro-2H-pyran-4-yl)-2,1-ethanediyl)))biscarbamate]: the EC50 under setting [1] fell in the range of 0.0101 to 1 nM. In the case of `COC(=O)N[C@H](C(=O)N1CCC[C@H]1c1nc2ncc(-c3ccc4cc(-c5cnc6nc([C@@H]7CCCN7C(=O)[C@@H](NC(=O)OC)C(C)C)[nH]c6c5)ccc4c3)cc2[nH]1)C(C)C` [Example 22, Methyl((1S)-1-(((2S)-2-(6-(6-(2-((2S)-1-((2S)-2-((methoxycarbonyl)amino)-3-methylbutanoyl)-2-pyrrolidinyl)-1H-imidazo[4,5-b]pyridin-6-yl)-2-naphthyl)-1H-imidazo[4,5-b]pyridin-2-yl)-1-pyrrolidinyl)carbonyl)-2-methylpropyl)carbamate], the EC50 under setting [1] lay in the range of 0.0101 to 1 nM. For the molecule `COC(=O)N[C@H](C(=O)N1[C@@H]2C[C@@H]2C[C@H]1c1nc2ccc(-c3ccc4nc(-c5ccc6nc([C@@H]7C[C@H]8C[C@H]8N7C(=O)[C@@H](NC(=O)OC)C7CCOCC7)[nH]c6c5)cnc4c3)cc2[nH]1)C1CCOCC1` [Example 38, Dimethyl(2,6-quinoxalinediylbis(1H-benzimidazole-5,2-diyl(1R,3S,5R)-2-azabicyclo[3.1.0]hexane-3,2-diyl((1S)-2-oxo-1-(tetrahydro-2H-pyran-4-yl)-2,1-ethanediyl)))biscarbamate], the EC50 by setting is: (read-out: EC50) 0.0421 nM; under setting [1], 0.0101 to 1 nM. As to `COC(=O)N[C@H](C(=O)N1CCC[C@H]1c1ncc(-c2ccc3ccc(-c4ccc5nc([C@@H]6CCCN6C(=O)[C@@H](NC(=O)OC)C(C)C)[nH]c5c4)cc3c2)[nH]1)C(C)C` [Example 17, Methyl((1S)-1-(((2S)-2-(4-(7-(2-((2S)-1-((2S)-2-((methoxycarbonyl)amino)-3-methylbutanoyl)-2-pyrrolidinyl)-1H-benzimidazol-5-yl)-2-naphthyl)-1H-imidazol-2-yl)-1-pyrrolidinyl)carbonyl)-2-methylpropyl)carbamate], under setting [1], the EC50 was 1.01 to 1000 nM. As for `COC(=O)N[C@H](C(=O)N[C@@H](C)c1ncc(-c2ccc(-c3ccc4cc(-c5cnc([C@H](C)NC(=O)[C@@H](NC(=O)OC)C6CCOCC6)[nH]5)ccc4c3)cc2)[nH]1)C1CCOCC1` [Example 125, Methyl((1S)-2-(((1S)-1-(4-(4-(6-(2-((1S)-1-(((2S)-2-((methoxycarbonyl)amino)-2-(tetrahydro-2H-pyran-4-yl)acetyl)amino)ethyl)-1H-imidazol-4-yl)-2-naphthyl)phenyl)-1H-imidazol-2-yl)ethyl)amino)-2-oxo-1-(tetrahydro-2H-pyran-4-yl)ethyl)carbamate], the EC50 runs as follows: (read-out: EC50) 0.136 nM; under setting [1], 0.0101 to 1 nM. Regarding `COC(=O)N[C@H](C(=O)N1[C@@H]2C[C@@H]2C[C@H]1c1ncc(-c2ccc(-c3ccc4nc(-c5cnc([C@@H]6C[C@H]7C[C@H]7N6C(=O)[C@@H](NC(=O)OC)C(C)C)[nH]5)cnc4c3)cc2)[nH]1)C(C)C` [Example 104], the EC50 (read-out: EC50) is 0.00201 nM. For `COC(=O)N[C@H](C(=O)N1C[C@@H](C)C[C@H]1c1ncc(-c2ccc(-c3ccc4nc(-c5cnc([C@@H]6C[C@H](C)CN6C(=O)[C@@H](NC(=O)OC)C6CCOCC6)[nH]5)ccc4c3)cc2)[nH]1)C1CCOCC1` [Example 114, Methyl((1S)-2-((2S,4S)-2-(4-(6-(4-(2-((2S,4S)-1-((2S)-2-((methoxycarbonyl)amino)-2-(tetrahydro-2H-pyran-4-yl)acetyl)-4-methyl-2-pyrrolidinyl)-1H-imidazol-4-yl)phenyl)-2-quinolinyl)-1H-imidazol-2-yl)-4-methyl-1-pyrrolidinyl)-2-oxo-1-(tetrahydro-2H-pyran-4-yl)ethyl)carbamate], the concentration giving a half-maximal response (EC50) under setting [1] is 0.0101 to 1 nM. Consider `O=C(OCc1ccccc1)N1CCC[C@H]1c1nc2cc(-c3ccc4cc(-c5cnc6[nH]c([C@@H]7CCCN7C(=O)OCc7ccccc7)nc6c5)ccc4c3)cnc2[nH]1` [Intermediate 114, Benzyl(2S)-2-(6-(6-(2-((2S)-1-((benzyloxy)carbonyl)-2-pyrrolidinyl)-1H-imidazo[4,5-b]pyridin-6-yl)-2-naphthyl)-3H-imidazo[4,5-b]pyridin-2-yl)-1-pyrrolidinecarboxylate], for which the EC50 under setting [1] lay within 1.01 to 1000 nM.

With `COC(=O)N[C@H](C(=O)N1[C@@H]2C[C@@H]2C[C@H]1c1ncc(-c2ccc3nc(-c4ccc5nc([C@@H]6C[C@H]7C[C@H]7N6C(=O)[C@@H](NC(=O)OC)C6CCOCC6)[nH]c5c4)cnc3c2)[nH]1)C1CCOCC1` [Example 53, Methyl((1S)-2-((1R,3S,5R)-3-(4-(2-(2-((1R,3S,5R)-2-((2S)-2-((methoxycarbonyl)amino)-2-(tetrahydro-2H-pyran-4-yl)acetyl)-2-azabicyclo[3.1.0]hex-3-yl)-1H-benzimidazol-5-yl)-6-quinoxalinyl)-1H-imidazol-2-yl)-2-azabicyclo[3.1.0]hex-2-yl)-2-oxo-1-(tetrahydro-2H-pyran-4-yl)ethyl)carbamate], the 50% effective concentration (EC50) (read-out: EC50) was 1.81 nM and the EC50 under setting [1] is 1.01 to 1000 nM. Regarding `COC(=O)N[C@H](C(=O)N1CCOC[C@H]1c1nc(-c2ccc(-c3ccc4cc(-c5c[nH]c([C@@H]6COCCN6C(=O)[C@@H](NC(=O)OC)C6CCOCC6)n5)ccc4c3)cc2)c[nH]1)C1CCOCC1` [Example 116, Methyl((1S)-2-((3R)-3-(4-(4-(6-(2-((3R)-4-((2S)-2-((methoxycarbonyl)amino)-2-(tetrahydro-2H-pyran-4-yl)acetyl)-3-morpholinyl)-1H-imidazol-4-yl)-2-naphthyl)phenyl)-1H-imidazol-2-yl)-4-morpholinyl)-2-oxo-1-(tetrahydro-2H-pyran-4-yl)ethyl)carbamate], the EC50 under setting [1] lay within 0.0101 to 1 nM.

On to `COC(=O)NC(C(=O)N1[C@@H]2C[C@@H]2C[C@H]1c1ncc(C#Cc2ccc3cc(-c4cnc([C@@H]5C[C@H]6C[C@H]6N5C(=O)C(NC(=O)OC)C5CCOCC5)[nH]4)ccc3c2)[nH]1)C1CCOCC1` (stereo partly drawn) [Example 75, methyl(2-((1R,3S,5R)-3-(4-(6-((2-((1R,3S,5R)-2-(((methoxycarbonyl)amino)(tetrahydro-2H-pyran-4-yl)acetyl)-2-azabicyclo[3.1.0]hex-3-yl)-1H-imidazol-4-yl)ethynyl)-2-naphthyl)-1H-imidazol-2-yl)-2-azabicyclo[3.1.0]hex-2-yl)-2-oxo-1-(tetrahydro-2H-pyran-4-yl)ethyl)carbamate], for which the EC50 by setting is: (read-out: EC50) 0.123 nM; under setting [1], 1.01 to 1000 nM. Consider `COC(=O)N[C@H](C(=O)N1[C@@H]2C[C@@H]2C[C@H]1c1ncc(-c2ccc3nc(-c4ccc5nc([C@@H]6C[C@H]7C[C@H]7N6C(=O)[C@@H](NC(=O)OC)C(C)C)[nH]c5c4)cnc3c2)[nH]1)C(C)C` [Example 52, Methyl((1S)-1-(((1R,3S,5R)-3-(4-(2-(2-((1R,3S,5R)-2-((2S)-2-((methoxycarbonyl)amino)-3-methylbutanoyl)-2-azabicyclo[3.1.0]hex-3-yl)-1H-benzimidazol-5-yl)-6-quinoxalinyl)-1H-imidazol-2-yl)-2-azabicyclo[3.1.0]hex-2-yl)carbonyl)-2-methylpropyl)carbamate], for which the concentration giving a half-maximal response (EC50) (read-out: EC50) came out at 0.0059 nM.
